Laboratory results published in PubChem BioAssay (NCI).
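Five compound concentrations were applied to cells in 96-well plates for 48 hours; endpoints were derived by simple linear interpolation of the resulting dose-response curve. The concentration for full growth arrest is given as TGI.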

What was measured:
Test in all cases: NCI-60 cell line screen, 48 h
DU-145 prostate = tested on: DU-145 prostate
IGROV1 ovarian = tested on: IGROV1 ovarian
MALME-3M melanoma = tested on: MALME-3M melanoma
MCF7 breast = tested on: MCF7 breast
MDA-MB-435 = tested on: MDA-MB-435
MDA-N = tested on: MDA-N
MOLT-4 leukemia = tested on: MOLT-4 leukemia
NCI-H226 lung = tested on: NCI-H226 lung
NCI-H23 lung = tested on: NCI-H23 lung
NCI-H460 lung = tested on: NCI-H460 lung
OVCAR-3 ovarian = tested on: OVCAR-3 ovarian
OVCAR-4 ovarian = tested on: OVCAR-4 ovarian
PC-3 prostate = tested on: PC-3 prostate
SF-295 CNS = tested on: SF-295 CNS
SK-OV-3 ovarian = tested on: SK-OV-3 ovarian
SN12C renal = tested on: SN12C renal
SW-620 colon = tested on: SW-620 colon
T-47D breast = tested on: T-47D breast
UO-31 renal = tested on: UO-31 renal

Structure (SMILES) | TGI (DU-145 prostate) | TGI (IGROV1 ovarian) | TGI (MALME-3M melanoma) | TGI (MCF7 breast) | TGI (MDA-MB-435) | TGI (MDA-N) | TGI (MOLT-4 leukemia) | TGI (NCI-H226 lung) | TGI (NCI-H23 lung) | TGI (NCI-H460 lung) | TGI (OVCAR-3 ovarian) | TGI (OVCAR-4 ovarian) | TGI (PC-3 prostate) | TGI (SF-295 CNS) | TGI (SK-OV-3 ovarian) | TGI (SN12C renal) | TGI (SW-620 colon) | TGI (T-47D breast) | TGI (UO-31 renal)
COc1nc(N)c(NC2OC(CO)C(O)C2O)c(=O)[nH]1 (stereo unspecified) | > 100 µM | > 100 µM | > 100 µM | > 100 µM | > 100 µM | > 100 µM | > 100 µM | > 100 µM | > 100 µM | > 100 µM | > 100 µM | > 100 µM | > 100 µM | > 100 µM | > 100 µM | > 100 µM | > 100 µM | > 100 µM | > 100 µM
CN(/N=C(\C(=O)O)c1ccccc1)C1=NCCCN1 | > 100 µM | > 100 µM | > 100 µM | > 100 µM | > 100 µM | > 100 µM | > 100 µM | > 100 µM | > 100 µM | > 100 µM | > 100 µM | > 100 µM | > 100 µM | > 100 µM | > 100 µM | > 100 µM | > 100 µM | > 100 µM | > 100 µM
CCC(NC(C)c1ccccc1)C(O)c1ccc(OCc2ccccc2)c(OCc2ccccc2)c1 (stereo unspecified) | 32.1 µM | 33.9 µM | 28.9 µM | 31.1 µM | 26.7 µM | 30.3 µM | 33.4 µM | 36.3 µM | 31.6 µM | 32.1 µM | 25.6 µM | 33.5 µM | 27.4 µM | 35.4 µM | 32.4 µM | 29.5 µM | 20.3 µM | 40.1 µM | 23.7 µM
Cc1c(/C=N/NC(=S)Nc2ccccc2Cl)c(=O)n(-c2ccccc2)n1C | > 100 µM | > 100 µM | 79.9 µM | > 100 µM | > 100 µM | > 100 µM | > 100 µM | > 100 µM |  | > 100 µM | > 100 µM | > 100 µM | > 100 µM | 89.4 µM | 82.5 µM | > 100 µM | > 100 µM | > 100 µM | > 100 µM
C#CCOCC12C=CC(O1)C1C(=O)N(C)C(=O)C12 (stereo unspecified) | > 100 µM | > 100 µM | > 100 µM | > 100 µM | > 100 µM | > 100 µM | > 100 µM | > 100 µM | > 100 µM | > 100 µM | > 100 µM | > 100 µM | > 100 µM | > 100 µM | > 100 µM | > 100 µM | > 100 µM | > 100 µM | > 100 µM
Cc1cc(=O)[nH]c(NN2C(Cl)C(=O)C2c2ccc(Cl)cc2)n1 (stereo unspecified) | 66.6 µM | 15.1 µM | 32.3 µM | 42.5 µM | 60 µM | 72.6 µM | 22.7 µM | 42 µM | 39.1 µM | 31.1 µM | 30.3 µM | > 64.7 µM | > 100 µM | > 100 µM | > 100 µM | 35.7 µM | > 71.7 µM | 43.4 µM | > 60.9 µM
Cc1ccc(N2C(=O)C3c4[nH]c5ccccc5c4C4CCC(C(C)(C)C)CC4C3C2=O)cc1 (stereo unspecified) | 5.82 µM | 25.2 µM | 22.6 µM | > 46 µM | 42 µM | 44.1 µM | 9.2 µM | 33.2 µM | 32.4 µM | 17.2 µM | 8.62 µM | 22.7 µM | 31.8 µM | 24.3 µM | 28.2 µM | 24.7 µM | > 47.4 µM | 36 µM | 31.3 µM
CCC1(CC)CC(=NNS(=O)(=O)c2ccc(C)cc2)C1 | > 100 µM | > 100 µM | > 100 µM | > 100 µM | > 100 µM | > 100 µM | > 100 µM | > 100 µM | > 100 µM | > 100 µM | > 100 µM | > 100 µM | > 100 µM | > 100 µM | > 100 µM | > 100 µM | > 100 µM | > 100 µM | > 100 µM
O=C(NNC1=NCCN1)c1ccco1 | > 100 µM | > 100 µM | > 100 µM | > 100 µM | > 100 µM | > 100 µM | > 100 µM | > 100 µM | > 100 µM | > 100 µM | > 100 µM | > 100 µM | > 100 µM | > 100 µM | > 100 µM | > 100 µM | > 100 µM | > 100 µM | > 100 µM
COC(=O)C1C(OC(=O)c2ccccc2)CC2CCC1N2C(N)=O (stereo unspecified) | > 100 µM | > 100 µM | > 100 µM | > 100 µM | > 100 µM | > 100 µM | > 100 µM | > 100 µM | > 100 µM | > 100 µM | > 100 µM | > 100 µM | > 100 µM | > 100 µM | > 100 µM | > 100 µM | > 100 µM | > 100 µM | > 100 µM
CC1CC[C@@H](C(C)C)[C@H](Oc2nnc(C3OC(CO)C(O)C3O)o2)C1 (stereo partly specified) | > 100 µM |  | > 100 µM | > 100 µM | > 100 µM | > 100 µM | > 100 µM | > 100 µM | > 100 µM | > 100 µM | > 100 µM | > 100 µM | > 100 µM | > 100 µM | > 100 µM | > 100 µM | > 100 µM | > 100 µM | > 100 µM
CCOC(=O)c1sc2c(c1OC(=O)c1cccs1)c(=O)n(-c1ccccc1)c(=S)n2-c1ccccc1 | 94.1 µM | 28 µM | 31.5 µM | 69.1 µM | 29.2 µM | > 100 µM | 40 µM | 48.7 µM | 46.5 µM | 12.4 µM | 60.6 µM | 27.5 µM | 31.8 µM | > 100 µM | 42.9 µM | 42 µM | 65.5 µM | > 100 µM | 0.925 µM
